Here are results for five compounds from US7938981B2, “Deicing and heat transfer fluid compositions” (Bioamber S.A.S., priority 2009, dated 2011).

Series [1] is described as follows: Biological Oxygen Demand (BOD5), 5 day test. The conditions noted are these: 50% (wt.) concentration in water, ratio BOD5 to COD. The source says: The oxygen demand of a compound during chemical oxidation and biological degradation is an indication of the persistence of the chemical in the environment. […] BOD is the amount of oxygen required for biological oxidation by bacteria growing under aerobic conditions. The ratio of BOD to COD can be used to assess whether a compound is readily biodegradable. When BOD5 is expressed as a percentage of COD, a BOD5 that is <1% of COD indicates a relatively nonbiodegradable compound and >10% of COD indicates a relatively degradable compound (the subscript “5” denotes a 5 day test).

The conditions of series [2]: 25% (wt.) concentration in water; cited from earlier work.
The conditions of series [3]: 50% (wt.) concentration in water, in five days, value with literature reference 17, cited from earlier work.

Like-named read-outs stand apart in the source and are kept apart here.

As to `OCCO` [Ethylene Glycol], the “Biodegradability (BOD5/COD)%” value in series [1] was 61%. Also, in series [2], the Freezing point was −12.0^20 °C.
On to `CC(O)CO` (stereo not drawn) [Propylene Glycol], for which, in series [1], the “Biodegradability (BOD5/COD)%” value turned out to be 59%. The Freezing point in series [2] was −11.0^21 °C.
With `O=C([O-])CCC(=O)[O-].[K+].[K+]` [Test No. 1, potassium succinate], the “Biodegradability (BOD5/COD)%” value in series [1] (listed as Potassium Succinate) was 68%; in series [1] (listed as succinate), “highly biodegradable”. Besides, in series [2], the Freezing point is −12.5^14 °C.
Consider `CC(=O)[O-].[K+]` [Test No. 2, potassium acetate], for which, in series [1], the “Biodegradability (BOD5/COD)%” value is “highly biodegradable”. Also, in series [2], the Freezing point is −18.0^14 °C.
Turning to `O=C[O-].[K+]` [Test No. 3, potassium formate], the “Biodegradability (BOD5/COD)%” value in series [3] (listed as Potassium formate) is 100%^17; in series [3] (listed as potassium formate), 100%. The Freezing point in series [2] was −15.0^17 °C.
